# From article PMC7318243, “Computationally Empowered Workflow Identifies Novel Covalent Allosteric Binders for KRAS^G12C” (Chemmedchem, 2020)
# Columns and labels:
# [1] = target: T1, KRAS^G12C (recombinant KRAS mutant G12C, C51S, C80L, C118S) (Homo sapiens, UniProt P01116, C118S/C51S/C80L/G12C); assay: Covalent binding assay by mass spectrometry (intact mass, % covalent adduct); details: 25 µM protein, 25 µM compound, room temperature, 2 h
# T1 construct: made in house
# Protocol: (§1) One of the most synthetically accessible compounds, 1,6‐naphthyridin‐5(6H)‐one (1), was prepared (Table 1; Scheme S1). Structurally close to 1, isoquinolin‐1(2H)‐one 2 derivatives were also considered for the exploration of structure‐activity relationships (SAR). To measure the proportion of inhibitor reacting with Cys12 of the KRAS^G12C mutant, the bound/unbound protein ratio was quantified by mass spectrometry (MS). Then, the inhibition potency of these compounds towards KRAS^G12C was evaluated in biochemical assays measuring the activation of GDP‐bound KRAS^G12C or KRAS^WT by SOS1.19 […]
# 3.4 Covalent binding assay by mass spectrometry
# The percentage of covalent adduct formation at KRAS G12C was determined by intact mass determination. To this end, 25 µM recombinant KRAS mutant (G12C , C51S, C80L, C118S) was incubated with 25 µM compound (1% v/v DMSO final concentration) in 50 mM Tris, pH 8.0, 50 mM NaCl at room temperature for 2 h. Reaction mixture (20 µL) was acidified by addi tion of 4% v/v TFA (4 µL). LC-MS analysis was performed using a Waters SYNAPT G2 -S quadrupole time -of-flight mass spectrometer connected to a Waters nanoA CQUITY UPLC system. Samples were loaded onto a 2.1 × 5 mm MassPrep C4 guard column (Waters) and desalted with a short gradient (3 min) of increasing concentration of acetonitrile at a flow rate of 100 µL/min. Spectra were analyzed by using MassLynx v4.1 software and deconvoluted with the MaxEnt1 algorithm. Percent conversion was determined by the ratio of signal intensities of […] and KRASG12C + inhibitor. […]
# [2] = target: T2, KRAS^WT (Homo sapiens, UniProt P01116); assay: Biochemical assay: KRAS^WT activation by SOS1CAT (HTRF, fluorescent GTP loading); details: 180 min pre-incubation with KRAS before addition of SOS1
# T2 construct: The proteins KRASWT (aa 1–169, wild type), SOS1CAT (aa 564–); made in house
# Protocol: as §1
# (§2) 3.3 Biochemical activity assays
# (§3) Measurement of (i) KRASG12C activation by SOS1CAT and (ii) wild-type KRAS activation by SOS1CAT was performed following the previously described protocol, [19] with a pre-incubation time of the test compound with KRAS proteins extended to 180 min before addi tion of SOS1.
# (§4) This assay quantifies SOS1 CAT mediated loading of KRAS G12C–GDP with a fluorescent GTP analogue. Detection of successful loading was achieved by measuring resonance energy transfer from anti-GST-terbium (FRET donor) bound to GST -KRASG12C to the loaded fluorescent GTP analogue (FRET acceptor). The fluorescent GTP analogue EDA –GTP–DY-647P1 [2'/3'-O-(2-aminoethyl-carbamoyl)guanosine-5'-triphosphate labelled with DY-647P1 (Dyomics GmbH, Germany)] was synthesized by Jena Bioscience (Germany) a nd supplied as a 1 mM aqueous solution. A KRASG12C working solution was prepared in assay buffer [10 mM HEPES pH 7.4 (AppliChem), 150 mM NaCl (Sigma), 5 mM MgCl2 (Sigma), 1 mM DTT (Thermo Fisher), 0.05% BSA Fraction V pH 7.0 (ICN Biomedicals), 0.0025% (v/v) Igepal (Sigma)] containing 100 nM GST-KRASG12C and 2 nM anti-GST-terbium (Cisbio, France). A SOS1 CAT working solution was prepared in an assay buffer containing 20 nM SOS1CAT and 200 nM EDA–GTP–DY-647P1. An inhibitor control solution was prepared in an assay buffer containing 200 nM EDA–GTP–DY-647P1 without […]
# (§5) SOS1CAT. All steps of the assay were performed at 20 °C. A volume of 2.5 µL of the KRASG12C working solution was added to all wells of the test plate using a Multidrop dispenser (Thermo LabSystems). After 180 min, 2.5 µL of the SOS1CAT working solution was added to all wells, except for the inhibitor control solution wells. After 30 min incubation, HTRF was measured.
# In the KRASWT activation by SOS1cat assay, human SOS1CAT mediated loading of GST-KRASWT– GDP was quantified with a fluorescent GTP analogue. The assay was performed as described above for the KRASG12C activation. […]
# (§6) SYNAPT G2-S quadrupole time-of-flight mass spectrometer connected to a Waters nanoAcquity UPLC system. Samples were loaded on a 2.1 x 5 mm mass prep C4 guard column (Waters) and desalted with a short grad ient (3 min) of increasing concentrations of acetonitrile at a flow rate of 100 µL/min. Spectra were analyzed by using MassLynx v4.1 software and deconvoluted with the MaxEnt1 algorithm. Percent of conversion was determined by the ratio of signal intensiti es of apo-KRAS and KRAS + inhibitor.
# [3] = target: T3, KRAS^G12C (Homo sapiens, UniProt P01116, G12C); assay: Biochemical assay: KRAS^G12C activation by SOS1CAT (HTRF, fluorescent GTP loading); details: 180 min pre-incubation with KRAS before addition of SOS1
# T3 construct: KRASG12C (aa 1–169, G12C) were produced for the biochemical assay; made in house
# Protocol: as §1, §2, §3, §4
# as §5, with “measured. […]” for “measured.”
# as §6
structure (smiles),measurement,setting,value
"C=CC(=O)N1CCC(c2cc3ncc(-c4c(O)cccc4F)cc3c(=O)[nH]2)C1 (stereo not drawn) [Compound 1, 3-(2-Fluoro-6-hydroxyphenyl)-7-[1-(prop-2-enoyl)pyrrolidin-3-yl]-1,6-naphthyridin-5(6H)-one]",MS assay [% binding] (KRAS^G12C bound fraction),[1],80%
same,IC50,[2],> 20 µM
same,IC50,[3],2.8 µM
"C=CC(=O)N1CCC(c2cc3cnc(-c4c(O)cccc4F)cc3c(=O)[nH]2)C1 (stereo not drawn) [Compound 13, 7-(2-Fluoro-6-hydroxyphenyl)-3-[1-(prop-2-enoyl)pyrrolidin-3-yl]-2,6-naphthyridin-1(2H)-one]",MS assay [% binding] (KRAS^G12C bound fraction),[1],73%
same,IC50,[2],> 20 µM
same,IC50,[3],1.3 µM
"C=CC(=O)N1CCC(c2cc3ccc(-c4c(O)cccc4F)cc3c(=O)[nH]2)C1 (stereo not drawn) [Compound 2, 7-(2-Fluoro-6-hydroxyphenyl)-3-[1-(prop-2-enoyl)pyrrolidin-3-yl]isoquinolin-1(2H)-one]",MS assay [% binding] (KRAS^G12C bound fraction),[1],35%
same,IC50,[2],> 20 µM
same,IC50,[3],4.7 µM
